Assay results published in patent US20180128815A1, “METHOD OF SCREENING AN AGENT FOR INHIBITING RECURRENCE OR METASTASIS OF BREAST CANCER” (GACHON UNIVERSITY OF INDUSTRY-ACADEMIC COOPERATION …, priority 2014, published 2018).

What was measured:
Assay type in all cases: cell-based
[1] = system: 4T1 murine breast cancer cell line; assay: IGF1 immunofluorescence staining, 4T1 cells with or without Wnt signaling inhibitor
Description: (§1) In order to confirm the expression level of IGF1 gene, one of the five genes discovered above, within a cell, the 4T1 murine breast cancer cell line and MCF7 human breast cancer cell line were cultured via adhesion culture method and suspending culture method in the same manner as in Example 1 under the condition of with or without the treatment of the Wnt signaling inhibitor (CWP232228, JW Pharmaceutical, Korea) and thereby obtained the respective culture products.
(§2) The thus obtained respective culture products were added with mouse anti-IGF1 antibodies (Milipore, cat. #05-172) to perform a primary reaction, and then added with anti-mouse IgG antibodies (Invitrogen cat.A11001) to perform a secondary reaction, thereby performing an immunofluorescence staining regarding the IGF1 gene, which was observed under an optical microscope (Zeiss LSM 510) and the expression level of IGF1 was measured (FIG. 3).

[2] = system: 4T1 murine breast cancer cell line (suspending culture, cancer stem cells); assay: RTQ-PCR of stem cell marker genes in suspension-cultured 4T1 cells with or without Wnt signaling inhibitor; conditions: 1 μM applied 4 times, once in two days, 8 days suspending culture
Description: Then, the 4T1 murine breast cancer cell line was added with a DMEM medium containing 20 ng/mL of EGF, 20 ng/mL of bFGF, 4 μg/mL of heparin, and B27, and cultured via suspending culture at 37° C. with […] for 7 days to obtain a culture product in a spherical form.
First, 4T1 murine breast cancer cell line was cultured via the suspending culturing method in the same manner as in Example 1-1 for 8 days under the condition of with or without the treatment of the Wnt signaling inhibitor (CWP232228, JW Pharmaceutical, Korea). In particular, the Wnt signaling inhibitor was applied a total of 4 times once in two days at a concentration of 1 μM.
Then, the thus obtained culture products were subjected to RNeasy Plus Mini Kit (Qiagen Inc, Valencia, Calif.) and the total RNA was extracted from each of the culture products. The thus-extracted each of the total RNA was subjected to random hexamer and ReverAid H Minus First Strand cDNA Synthesis Kit (Thermo scientific) to synthesize their respective cDNAs. […] The data obtained via RTQ-PCR was analyzed and, based on the 2-deltadelta ct values among the respective cells cultured, the genes with at least a 2-fold difference and a P value<0.05 were selected. […]

[3] = system: MCF7 human breast cancer cell line; assay: IGF1 immunofluorescence staining, MCF7 cells with or without Wnt signaling inhibitor
Description: as §1, §2

[4] = adhesion culture, regardless of treatment
[5] = suspending culture (cancer stem cells)

## C=CCN1CC(=O)N2[C@@H](Cc3ccc(OP(=O)([O-])[O-])cc3)C(=O)N(Cc3cccc4cn(C)nc34)C[C@@H]2N1C(=O)NCc1ccccc1.[Na+].[Na+] [CWP232228]
[1]; [4]
  IGF1 gene expression (immunofluorescence, FIG. 3): not expressed
[1]; [5]
  level of IGF1 gene expression (immunofluorescence, FIG. 3): deceased
[2]; P value<0.05
  difference in expression of IGF1, Id2, MMP2, MMP9 and Wnt5a genes (2-deltadelta ct, Stem cell PCR array) treated vs untreated: ≥ 2 fold
[2]; treated vs untreated
  expression of IGF1, Id2, MMP2, MMP9 and Wnt5a genes by RTQ-PCR with specific primers (FIG. 2): significant difference in their expression
[3]; [4]
  IGF1 gene expression (immunofluorescence, FIG. 3): not expressed
[3]; [5]
  level of IGF1 gene expression (immunofluorescence, FIG. 3): deceased
